Columns and labels:
Test in all cases: cell viability (% survival relative to DMSO control, bortezomib = 0%); higher = less cytotoxic
Settings in all cases: 72 h
LAMA-84 = system: LAMA-84
Procedure, shortened: (§1)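 Seeding density for each of the 10 AML and 5 CML cell lines was titrated to the linear growth range. Cells went into 384-well plates pre-printed in duplicate with compounds at 1, 10, 100, 1000 or 10000 nM and were held for 72 h at 37 °C with 5% CO2. CellTiter-Glo luminescence then provided the readout. Percent survival is expressed relative to vehicle at 100% and a 10 µM positive control at 0%, averaged over duplicates.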

Mono-Mac-6 = system: Mono-Mac-6
Procedure, shortened: as §1

NOMO-1 = system: NOMO-1
Procedure, shortened: as §1

Row | SMILES | cell viability (LAMA-84; 1 nM) | cell viability (LAMA-84; 10 nM) | cell viability (LAMA-84; 100 nM) | cell viability (LAMA-84; 1000 nM) | cell viability (LAMA-84; 10000 nM) | cell viability (Mono-Mac-6; 1 nM) | cell viability (Mono-Mac-6; 10 nM) | cell viability (Mono-Mac-6; 100 nM) | cell viability (Mono-Mac-6; 1000 nM) | cell viability (Mono-Mac-6; 10000 nM) | cell viability (NOMO-1; 1 nM) | cell viability (NOMO-1; 10 nM) | cell viability (NOMO-1; 100 nM) | cell viability (NOMO-1; 1000 nM) | cell viability (NOMO-1; 10000 nM)
1 | O=C(c1ccc(OCCN2CCCCC2)cc1)c1c(-c2ccc(O)cc2)sc2cc(O)ccc12 [Raloxifene] | 106% | 102% | 94.9% | 95.5% | 87.9% | 109% | 95.2% | 107% | 104% | 77% | 100% | 95.8% | 99.3% | 100% | 86.5%
2 | O=C(O)c1nn(Cc2ccc(Cl)cc2Cl)c2ccccc12 [Lonidamine] | 99.1% | 94.6% | 108% | 99.9% | 102% | 106% | 111% | 102% | 87.5% | 72.5% | 96.7% | 99.9% | 107% | 106% | 105%
3 | CC12CCC(O)CC1CCC1C2CCC2(C)C(C3=CC(=O)OC3)CCC12O (stereo not given) [Digitoxigenin] | 109% | 105% | 84.6% | 6.05% | 0.855% | 111% | 89.6% | 83% | 1.4% | -1.27% | 110% | 96% | 109% | 11.3% | -1.17%
4 | CCOC(=O)[C@H]1O[C@@H]1C(=O)N[C@@H](CC(C)C)C(=O)NCCC(C)C [Aloxistatin] | 93.7% | 101% | 101% | 101% | 98.6% | 97.3% | 108% | 104% | 89% | 81.7% | 96.2% | 109% | 100% | 96.2% | 24.4%
5 | Nc1ncnc2c1ncn2[C@@H]1O[C@H](CSCC[C@H](N)C(=O)O)[C@@H](O)[C@H]1O [S-Adenosyl Homocysteine] | 105% | 110% | 100% | 99.4% | 103% | 96.7% | 101% | 96.9% | 104% | 93.7% | 101% | 104% | 103% | 98.1% | 104%
6 | Cc1c(-c2ccccc2)oc2c(C(=O)OCCN3CCCCC3)cccc2c1=O.Cl [Flavoxate] | 98% | 102% | 97.6% | 101% | 101% | 92.6% | 105% | 101% | 96% | 94.6% | 93.8% | 105% | 99.3% | 97.1% | 99.6%
7 | Sc1ncnc2nc[nH]c12 [6-mercaptopurine] | 102% | 86.6% | 87.9% | 55.3% | 12.6% | 97.2% | 97.7% | 85.9% | 53.7% | 15.5% | 108% | 86.7% | 88.6% | 41.5% | 30.5%
8 | CCOC(=O)N1c2ccc(C(F)(F)F)cc2[C@@H](N(Cc2cc(C(F)(F)F)cc(C(F)(F)F)c2)C(=O)OC)C[C@H]1CC [Torcetrapib] | 116% | 103% | 110% | 95.6% | 110% | 109% | 109% | 107% | 90.8% | 78.2% | 103% | 99.4% | 102% | 99.1% | 99%
9 | C=CCc1ccc2c(c1O)C(=O)c1ccccc1C2=O [R162] | 104% | 97.2% | 94.7% | 103% | 88.7% | 101% | 93.4% | 103% | 123% | 115% | 99% | 92.1% | 96.2% | 105% | 100%
10 | O=C(COc1ccc(C(=O)c2ccccc2)cc1)NC1CCN(Cc2ccccc2)CC1 [AdipoRon] | 96.9% | 102% | 93.8% | 96.7% | 61.1% | 96.3% | 101% | 99.9% | 98.1% | 90.7% | 102% | 107% | 96.3% | 96.7% | 91.1%
11 | OCCN1CCN(CCCN2c3ccccc3Sc3ccc(Cl)cc32)CC1 [Perphenazine] | 105% | 103% | 93.5% | 97.2% | 47.6% | 97.2% | 106% | 102% | 100% | 54.6% | 112% | 93.1% | 106% | 108% | 56.9%
12 | O=C(O)C(Cl)Cl [Dichloroacetate] | 101% | 100% | 98% | 101% | 99.3% | 92.4% | 92.4% | 113% | 98.8% | 102% | 101% | 98.9% | 102% | 102% | 103%
13 | O=C1Oc2ccccc2C(=O)C1CC1C(=O)Oc2ccccc2C1=O (stereo not given) [Dicumarol] | 97.3% | 107% | 95.5% | 103% | 105% | 103% | 111% | 86.5% | 95.7% | 106% | 99.4% | 101% | 98.8% | 109% | 96.3%
14 | O=C(O)CC[C@H](NC(=O)c1ccc([N+](=O)[O-])cc1)C(=O)O [(S)-2-(4-Nitrobenzamido)pentanedioic acid] | 98.8% | 77.2% | 99.6% | 103% | 100% | 96% | 103% | 94.9% | 97.6% | 98% | 92.4% | 95% | 99.6% | 105% | 95.6%
15 | CC(C(=O)O)C(=O)O [Methylmalonate] | 89.2% | 101% | 106% | 98.2% | 90.3% | 96.2% | 93% | 106% | 96.1% | 90.3% | 95.4% | 94.6% | 97.2% | 94% | 96.1%
16 | C#Cc1cnc(O)nc1O [Eniluracil] | 100% | 102% | 107% | 109% | 104% | 104% | 125% | 105% | 106% | 97.4% | 96.4% | 103% | 101% | 104% | 109%
